Article PMC10906223 (JCI Insight, 2024)
Where “and” joins values, the source holds several entries; their conditions need not be identical. Identical values can stand only once.

What was measured:
[1] = system: NOD mice; assay: Blood chemistry parameters in WCDD301-treated NOD mice; format: in vivo, mouse
Experimental: Terminal blood was collected into microfuge tubes containing K2-EDTA (supplemented by 45 mM phenylmethylsulphonyl fluoride and 0.77 μM aprotinin) through cardiac puncture. Plasma was separated by centrifugation (2,000g for 10 minutes at 4°C) and kept at –80°C until analysis. Plasma samples with hemolysis were excluded from the study. […] Values of BUN, creatinine, ALB, ALT, and AST were determined by a Roche Cobas C501 Autoanalyzer as performed by the Washington University Diabetes Research Center Translational Diagnostics Core. Reference intervals of blood chemistry parameters for inbred NOD mice were extracted from the Mouse Phenome Database (https://phenome.jax.org/).

[2] = system: α cells of NOD mice islets; assay: F-actin signal in α cells of pancreatic slices of NOD mice; format: in vivo, mouse; conditions: WCDD301-treated NOD mice; diabetic 47.14 ± 4.70, nondiabetic 79.14 ± 4.63
Experimental: Pancreata of NOD mice (females, n = 3 per group) from nondiabetic, diabetic placebo-treated, and diabetic WCDD301-treated cohorts were excised; fixed in 10% buffered formalin for 5 days; and treated with ethanol 70% for 2 days before paraffin embedding. The paraffin-embedded tissue blocks were longitudinally sectioned in 5 μm slices and fixed on microscope slides. Following deparaffinization (through incubation in graded xylene, graded ethanol, and PBS), permeabilization (using 0.1% Triton X-100 in PBS), and background blocking (using 5% BSA solution containing 0.1% Tween 20), samples were incubated with primary antibodies (mouse anti-glucagon, Abcam, catalog ab10988; above-mentioned rabbit anti-EphA4), secondary antibodies (goat anti-mouse IgG Alexa Fluor 488; Invitrogen, catalog A-11001; goat anti-rabbit IgG Alexa Fluor 633, Invitrogen, catalog A-21070), SPY555-Actin (Cytoskeleton, catalog SC202), and DAPI. Image acquisition and analysis were performed as for dispersed islet cells. […] ROIs were manually drawn around each islet, background signal was removed by thresholding, and intensity of glucagon signal was determined and normalized by the islet surface area. To determine sizes of α cells per islet, ROIs were manually drawn around α cells in each islet. […]

[3] = system: dispersed islet cells of donors with T1D; assay: Insulin secretion from dispersed islet cells of donors with T1D; format: cell-based, human; conditions: for Secretion of insulin: dispersed islet cells, T1D donors, one value per donor, Figure 2J;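 for Secretion of insulin: insulin concentration in collected medium by Lumit immunoassay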
Experimental: Pancreata of nondiabetic C57BL/6J mice were digested using collagenase P (Roche Diagnostics, catalog 11213873001), and islets were manually picked up using a stereomicroscope (ZEISS Stemi 305). […] Isolated mouse islets or provided human islets were dispersed as described ([28]). Briefly, 100–120 islets were washed 2 times using modified HBSS, then dispersed in 600 μL Accutase (Innovative Cell Technologies, catalog AT-104) by gently pipetting up and down for 7 minutes at 37°C. […] Following refreshing of KRBH, cells were dispensed in 8 microfuge tubes (2,000 cells/tube) and treated with WCDD301, preclustered Ephrin-A5 Fc, or preclustered Fc in the presence or absence of the competitive inhibitor of EphA4 receptor, rhyncophylline ([60]) (MilliporeSigma, catalog SML2345). In the presence or absence of these effectors, secretion assay was performed sequentially as shown in Supplemental Table 5. […] Preclustering of Ephrin-A5 Fc was done by mixing Ephrin-A5 Fc or Fc alone (BioLegend, catalog 790102) with anti-Fc antibody (Invitrogen, catalog A16086) (1:10 molar ratio) 20 minutes before treatment ([62]). […] Shedding of cleaved EphA4 was measured from the cell culture medium. Experiments were performed by dispersion of 200 islets, and EphA4 levels in media were measured by EphA4 ELISA (ABclonal, catalog RK06572).
The Integrated Islet Distribution Program provided us human donor islets with their characteristics (Supplemental Table 6). Islets were centrifuged at 500g for 3 minutes, resuspended in CMRL 1066 medium (Gibco, catalog 1150-037) containing 11 mM glucose, and rested in an incubator overnight.
For the hormone secretion assay, islets or dispersed islet cells were adapted in KRBH buffer containing 11 mM glucose for 1 hour. Then, after 2 washes in HBSS containing 11 mM glucose, islets or cells were treated in the following sequential order in the presence or absence of WCDD301: incubation in KRBH (1 mM glucose, 30 minutes) followed by medium collection, incubation in KRBH (11 mM glucose, 30 minutes) followed by medium collection.

CC(=O)OCC(N)(COC(C)=O)COC(C)=O [WCDD301, 2-(acetoxymethyl)-2-aminopropane-1,3-diyl diacetate]
Blood chemistry markers (BUN, creatinine, ALB, ALT, AST) ([1]; WCDD301-treated animals): remained in the normal range
Creatinine (CREAT) ([1]; non-diabetic NOD mice, 19-week-old, treated with WCDD301, mean ± SEM, n=5, reference interval 0.2-0.5): 0.2 ± 0.1 mg/dL
Albumin (ALB) ([1]; non-diabetic NOD mice, 19-week-old, treated with WCDD301, mean ± SEM, n=5, reference interval 1.72-3.54): 3 ± 0.1 g/dL
Alanine aminotransferase (ALT) ([1]; non-diabetic NOD mice, 19-week-old, treated with WCDD301, mean ± SEM, n=5, reference interval 5-394): 20.5±9.5 IU/L
Blood urea nitrogen (BUN) ([1]; non-diabetic NOD mice, 19-week-old, treated with WCDD301, mean ± SEM, n=5, reference interval 10-79): 21 ± 2.3 mg/dL
Aspartate aminotransferase (AST) ([1]; non-diabetic NOD mice, 19-week-old, treated with WCDD301, mean ± SEM, n=5, reference interval 18-586): 99.5±57.5 IU/L
F-actin signal within α cells [2]: 74.50 ± 4.80 AU
Effect on insulin secretion ([3]; dispersed islet cells from donors with long-standing T1D): no effect on the minimal residual insulin secretion
Secretion of insulin ([3]; 1 mM glucose): 0.0567 and 0.08
Secretion of insulin ([3]; 11 mM glucose): 0.07 and 0.05
